# Where two headings read alike, the source gives them in different places.
# Experiments:
# [1] = cited from earlier work
# PDE4 [2] = conditions: cited from earlier work
# [3] = tested on: adenylate cyclase (AC) isoforms; conditions: cited from earlier work
# cAMP = cAMP levels in hypothalamic arcuate-like (ARC) neurons (Hes Nkx2-1 hESC line); type: cell-based, human; conditions: 10 μM Forskolin, thirty minutes, day 37 of differentiation
# Method: Cyclic AMP concentrations increased about 8.5-fold in iPSC-derived hypothalamic ARC neurons exposed to 10 μM Forskolin, supporting the inference that application of Forskolin increases PCSK1 transcript levels by raising cellular cAMP levels which in turn activate PCSK1's cAMP-response element promoter. FIG. 5A is a graph showing primary forebrain neurons were isolated from gestational day 19.5 (E19.5) embryos of wild type mice and cultured for 72 hours. Subsequently, cells were exposed to either 10 μM Forskolin or its vehicle, dimethyl sulfoxide (DMSO) for 20 hours. Pcsk1 transcript increased 2.5-fold in primary neurons exposed to Forskolin. FIG. 5B is a graph showing unaffected control hypothalamic arcuate-like (ARC) neurons (Hes Nkx2-1 hESC line) at day 37 ([…]) of differentiation were treated with 10 μM Forskolin or vehicle for thirty minutes. Cyclic adenosine monophosphate (cAMP) levels were increased about 8.5-fold in cells exposed to Forskolin. […] Four hours of exposure yielded the maximal increase in upregulation, about 2.5-fold, of the time points tested.
# PC1 = PC1 protein levels in isolated islets from WT mice; type: cell-based, mouse; conditions: isolated islets from wild type mice, 25 μM and 50 μM Forskolin
# PCSK1 transcript = PCSK1 transcript levels in iPSC-derived neurons; type: cell-based, human
# Method: FIGS. 6A-F are graphs showing that application of phosphodiesterase inhibitors to iPSC-derived neurons increases PCSK1 transcript levels and prohormone processing. […] FIGS. 6B-C: Roflumilast increases PCSK1 transcript levels in iPSC-derived neurons at Day 40 of differentiation (1043D3 line) at […] concentration. […] FIG. 6F: MK0952 applied at 10 μM in combination with 1 μM Forskolin increases PCSK1 transcript levels ˜2-fold in iPSC-derived neurons (1043D3 line).
# Forskolin was applied to various cellular models and the results illustrate that it robustly and reliably increases PCSK1 transcript levels, PC1 protein levels, and functionally increases prohormone processing. PCSK1/Pcsk1 transcript levels increased between 2-3 fold in iPSC-derived neurons and primary mouse neurons exposed to 10 μM Forskolin (FIGS. 5A, C, D).
# Cyclic AMP concentrations increased about 8.5-fold in iPSC-derived hypothalamic ARC neurons exposed to 10 μM Forskolin, supporting the inference that application of Forskolin increases PCSK1 transcript levels by raising cellular cAMP levels which in turn activate PCSK1's cAMP-response element promoter. FIG. 5A is a graph showing primary forebrain neurons were isolated from gestational day 19.5 (E19.5) embryos of wild type mice and cultured for 72 hours. Subsequently, cells were exposed to either 10 μM Forskolin or its vehicle, dimethyl sulfoxide (DMSO) for 20 hours. Pcsk1 transcript increased ˜2.5-fold in primary neurons exposed to Forskolin. FIG. 5B is a graph showing unaffected control hypothalamic arcuate-like (ARC) neurons (Hes Nkx2-1 hESC line) at day 37 (D37) of differentiation were treated with 10 μM Forskolin or vehicle for thirty minutes. Cyclic adenosine monophosphate (cAMP) levels were increased about 8.5-fold in cells exposed to Forskolin. […] Four hours of exposure yielded the maximal increase in upregulation, about 2.5-fold, of the time points tested.
# However, the effect size of PDE inhibition on PCSK1 transcript levels is less than that induced by AC agonism with forskolin. […] Again, increased PCSK1 transcription due to combination treatment with Forskolin and Roflumilast also increases prohormone processing of POMC to ACTH (FIG. 6E).
# [4] = Ratio of circulating proinsulin:insulin in wild type mice; type: in vivo, mouse; conditions: single administration, ~4 hour fasted wild type mice
# Method: The first in vivo study with MK0952 administered by oral gavage while forskolin was administered intraperitoneally one time to ˜4 hour fasted wild type mice was completed. […] This difference likely reflects greater CNS penetrance of the MK0952, not the general relevance of a cyclase activator to therapy of PWS. No change in the ratio of circulating proinsulin:insulin was detected following administration MK0952 or Forskolin. Because the processing of proinsulin to insulin is already quite efficient in WT animals, it is in hindsight unlikely that it would further increase at fasting. However, these ‘baseline’ data are still valuable for assessing proinsulin to insulin processing under the setting of an intraperitoneal glucose tolerance test at […] glucose in both WT and Snord116^p−/m+ mice. Additionally, samples were collected for measurement of circulating cAMP levels, cortical proBDNF/BDNF, cerebellar Pcsk1, gastric Pcsk1, and gastric proghrelin/ghrelin, and finally pulmonary Pcsk1 transcript and cAMP levels.
# PDE4 [5] = conditions: read-out: IC50 (intrinsic potency, PDE4 inhibitor); cited from earlier work
# whole blood = conditions: cited from earlier work
# [6] = cited from earlier work; remark: listed apart in the source
smiles,measurement,setting,value
CCOc1cc([C@@H](CS(C)(=O)=O)N2C(=O)c3cccc(NC(C)=O)c3C2=O)ccc1OC [Apremilast],Brain penetration,"[1]; PDE4 inhibitors, Table 1A",None
same,PDE4 selectivity,PDE4 [2],Selective
C=C[C@@]1(C)CC(=O)[C@]2(O)[C@@]3(C)[C@@H](O)CCC(C)(C)[C@@H]3[C@H](OC(=O)CCN(C)C)[C@H](OC(C)=O)[C@@]2(C)O1.Cl [FD5],AC isoforms activated,[3],"AC5 (AC5 expressed in heart,"
C=C[C@@]1(C)CC(=O)[C@]2(O)[C@@]3(C)[C@@H](O)CCC(C)(C)[C@@H]3[C@H](O)[C@H](OC(C)=O)[C@@]2(C)O1 [Forskolin],Brain penetration,"[1]; adenylate cyclase activators, Table 2",Yes
same,cAMP levels increase,cAMP,about 8.5 fold
same,PC1 protein levels increase,PC1,~3 fold
same,maximal increase in PCSK1 upregulation,"PCSK1 transcript; iPSC-derived neurons (line 1043D3), 10 μM Forskolin, four hours",about 2.5 fold
same,PCSK1 transcript levels increase,PCSK1 transcript; iPSC-derived neurons exposed to 10 μM Forskolin,2-3 fold
CCn1ncc2c(NC3CCOCC3)c(-c3nnc(Cc4sc(C)nc4C)o3)cnc21 [GSK356278],Brain penetration,"[1]; PDE4 inhibitors, Table 1A",Good
same,PDE4 selectivity,PDE4 [2],Selective
"CC(C)Cn1c(=O)n(C)c(=O)c2[nH]cnc21 [IBMX, 3-isobutyl-1-methylxanthine]",PDE4 selectivity,PDE4 [2],nonselective
CC(C)C(=O)c1c(C(C)C)nn2ccccc12 [Ibudilast],Brain penetration,"[1]; PDE4 inhibitors, Table 1A",Yes
O=C(NC1CC1)c1cn(-c2cccc(-c3ccc([C@@H]4C[C@H]4C(=O)O)c(F)c3)c2)c2ncccc2c1=O [MK0952],Brain penetration,"[1]; PDE4 inhibitors, Table 1A",brain-penetrant and yes
same,ratio of circulating proinsulin:insulin,[4],No change
same,IC50,PDE4 [5],0.6 nM
same,IC50,whole blood,555 nM
same,"PCSK1 transcription, MK0952 as single agent in vitro",PCSK1 transcript; iPSC-derived neurons,only been found to increase PCSK1 transcription in combination with Forskolin
same,PDE4 selectivity,PDE4 [2],selective
CC(=O)N[C@@H](C)c1cc(Cl)ccc1C1CCN(C(=O)[C@@H]2CN(C(C)(C)C)C[C@H]2c2ccc(F)cc2F)CC1 [MK-0493],efficacy for weight loss in non-genetic obese,[6],animal models but limited
O=C(Nc1c(Cl)cncc1Cl)c1ccc(OC(F)F)c(OCC2CC2)c1 [Roflumilast],Brain penetration,"[1]; PDE4 inhibitors, Table 1A",limited
same,"PCSK1 transcript levels, single agent","PCSK1 transcript; iPSC-derived neurons Day 40 (1043D3 line), 1 mM",increases
same,PDE4 selectivity,PDE4 [2],Selective
Cn1c(=O)c2[nH]cnc2n(C)c1=O [Theophylline],"PCSK1 transcript levels, single agent","PCSK1 transcript; D34 iPSC-derived hypothalamic ARC neurons (1023A line), 10 mM",increases
